Measurements published in PubChem BioAssay AID1963842 (Molecular Pharmacology Branch, DTP, NCI, 2024).

Tested on: 677734-321-R-J1-PDC complex spheroid viability
Experiment: Anticancer human tumor 677734-321-R-J1-PDC patient-derived soft tissue sarcoma cell line growth inhibition [POLQ]
Settings: for IC50: curve of first compound; for viability, T/C: stronger effect = lower value
Procedure, shortened: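 Complex spheroid viability model combining PDC tumour cells with endothelial (HUVEC) and MSC stromal cells. Novobiocin, ART-558 or RP6685 were tested singly and in combination with standard and investigational anticancer drugs. Each was titrated in half-log steps from near clinical Cmax, or from 10 microM where Cmax was unknown.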

[1] = second compound 0.0316 µM, first compound 0.0316 µM
[2] = second compound 0.0316 µM, first compound 0.1 µM
[3] = second compound 0.0316 µM, first compound 0.316 µM
[4] = second compound 0.0316 µM, first compound 1 µM
[5] = second compound 0.0316 µM, first compound 3.16 µM
[6] = second compound 0.0316 µM, first compound 10 µM
[7] = second compound 0.1 µM, first compound 0.0316 µM
[8] = second compound 0.1 µM, first compound 0.1 µM
[9] = second compound 0.1 µM, first compound 0.316 µM
[10] = second compound 0.1 µM, first compound 1 µM
[11] = second compound 0.1 µM, first compound 3.16 µM
[12] = second compound 0.1 µM, first compound 10 µM
[13] = second compound 0.316 µM, first compound 0.0316 µM
[14] = second compound 0.316 µM, first compound 0.1 µM
[15] = second compound 0.316 µM, first compound 0.316 µM
[16] = second compound 0.316 µM, first compound 1 µM
[17] = second compound 0.316 µM, first compound 3.16 µM
[18] = second compound 0.316 µM, first compound 10 µM
[19] = second compound 1 µM, first compound 0.0316 µM
[20] = second compound 1 µM, first compound 0.1 µM
[21] = second compound 1 µM, first compound 0.316 µM
[22] = second compound 1 µM, first compound 1 µM
[23] = second compound 1 µM, first compound 3.16 µM
[24] = second compound 1 µM, first compound 10 µM
[25] = second compound 3.16 µM, first compound 0.0316 µM
[26] = second compound 3.16 µM, first compound 0.1 µM
[27] = second compound 3.16 µM, first compound 0.316 µM
[28] = second compound 3.16 µM, first compound 1 µM
[29] = second compound 3.16 µM, first compound 3.16 µM
[30] = second compound 3.16 µM, first compound 10 µM
[31] = second compound 10 µM, first compound 0.0316 µM
[32] = second compound 10 µM, first compound 0.1 µM
[33] = second compound 10 µM, first compound 0.316 µM
[34] = second compound 10 µM, first compound 1 µM
[35] = second compound 10 µM, first compound 3.16 µM
[36] = second compound 10 µM, first compound 10 µM
[37] = second compound 0.0316 µM, first compound 0.00316 µM
[38] = second compound 0.0316 µM, first compound 0.01 µM
[39] = second compound 0.1 µM, first compound 0.00316 µM
[40] = second compound 0.1 µM, first compound 0.01 µM
[41] = second compound 0.316 µM, first compound 0.00316 µM
[42] = second compound 0.316 µM, first compound 0.01 µM
[43] = second compound 1 µM, first compound 0.00316 µM
[44] = second compound 1 µM, first compound 0.01 µM
[45] = second compound 3.16 µM, first compound 0.00316 µM
[46] = second compound 3.16 µM, first compound 0.01 µM
[47] = second compound 10 µM, first compound 0.00316 µM
[48] = second compound 10 µM, first compound 0.01 µM
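Note: spheroids exposed to compounds for one week.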
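Throughout, for viability, T/C: 100% = vehicle DMSO treated spheroids.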

## CCCS(=O)(=O)Nc1ccc(F)c(C(=O)c2c[nH]c3ncc(-c4ccc(Cl)cc4)cc23)c1F + Cc1cccc(N(C)C(=O)C2C(O)CCN2c2nc(C)cc(C(F)(F)F)c2C#N)c1
Second compound 0.0316 µM
  IC50: 4.25 µM
Second compound 0.1 µM
  IC50: 3.82 µM
Second compound 0.316 µM
  IC50: 3.99 µM
Second compound 1 µM
  IC50: 3.12 µM
Second compound 3.16 µM
  IC50: 2.92 µM
Second compound 10 µM
  IC50: 2 µM
[1]
  viability, T/C: 104%
[2]
  viability, T/C: 105%
[3]
  viability, T/C: 108%
[4]
  viability, T/C: 99.8%
[5]
  viability, T/C: 65.3%
[6]
  viability, T/C: 5.8%
[7]
  viability, T/C: 94.5%
[8]
  viability, T/C: 87.3%
[9]
  viability, T/C: 100%
[10]
  viability, T/C: 86.4%
[11]
  viability, T/C: 59.1%
[12]
  viability, T/C: 4.58%
[13]
  viability, T/C: 90.7%
[14]
  viability, T/C: 101%
[15]
  viability, T/C: 89.1%
[16]
  viability, T/C: 96%
[17]
  viability, T/C: 61.9%
[18]
  viability, T/C: 3.41%
[19]
  viability, T/C: 101%
[20]
  viability, T/C: 93.2%
[21]
  viability, T/C: 79.6%
[22]
  viability, T/C: 108%
[23]
  viability, T/C: 49.4%
[24]
  viability, T/C: 2.83%
[25]
  viability, T/C: 94.1%
[26]
  viability, T/C: 84.6%
[27]
  viability, T/C: 94%
[28]
  viability, T/C: 98.4%
[29]
  viability, T/C: 46.8%
[30]
  viability, T/C: 2.44%
[31]
  viability, T/C: 80.1%
[32]
  viability, T/C: 71.7%
[33]
  viability, T/C: 80.6%
[34]
  viability, T/C: 83.3%
[35]
  viability, T/C: 30.8%
[36]
  viability, T/C: 0.79%

## CNCc1ccc(-c2[nH]c3cc(F)cc4c3c2CCNC4=O)cc1 + Cc1cccc(N(C)C(=O)C2C(O)CCN2c2nc(C)cc(C(F)(F)F)c2C#N)c1
Second compound 0.0316 µM
  IC50: > 10 µM
Second compound 0.1 µM
  IC50: > 10 µM
Second compound 0.316 µM
  IC50: > 10 µM
Second compound 1 µM
  IC50: > 10 µM
Second compound 3.16 µM
  IC50: > 10 µM
Second compound 10 µM
  IC50: > 10 µM
[1]
  viability, T/C: 107%
[2]
  viability, T/C: 104%
[3]
  viability, T/C: 107%
[4]
  viability, T/C: 106%
[5]
  viability, T/C: 107%
[6]
  viability, T/C: 107%
[7]
  viability, T/C: 108%
[8]
  viability, T/C: 110%
[9]
  viability, T/C: 103%
[10]
  viability, T/C: 101%
[11]
  viability, T/C: 106%
[12]
  viability, T/C: 105%
[13]
  viability, T/C: 120%
[14]
  viability, T/C: 104%
[15]
  viability, T/C: 104%
[16]
  viability, T/C: 105%
[17]
  viability, T/C: 113%
[18]
  viability, T/C: 98.9%
[19]
  viability, T/C: 108%
[20]
  viability, T/C: 94.9%
[21]
  viability, T/C: 104%
[22]
  viability, T/C: 114%
[23]
  viability, T/C: 106%
[24]
  viability, T/C: 107%
[25]
  viability, T/C: 110%
[26]
  viability, T/C: 96.5%
[27]
  viability, T/C: 102%
[28]
  viability, T/C: 108%
[29]
  viability, T/C: 107%
[30]
  viability, T/C: 99.3%
[31]
  viability, T/C: 109%
[32]
  viability, T/C: 95.2%
[33]
  viability, T/C: 104%
[34]
  viability, T/C: 101%
[35]
  viability, T/C: 91.4%
[36]
  viability, T/C: 98.6%

## COc1cccc(OCCCN)c1-c1cc(Nc2cnc(C#N)cn2)n[nH]1 + Cc1cccc(N(C)C(=O)C2C(O)CCN2c2nc(C)cc(C(F)(F)F)c2C#N)c1
Second compound 0.0316 µM
  IC50: 0.00514 µM
Second compound 0.1 µM
  IC50: 0.00554 µM
Second compound 0.316 µM
  IC50: 0.00535 µM
Second compound 1 µM
  IC50: 0.00349 µM
Second compound 3.16 µM
  IC50: 0.00487 µM
Second compound 10 µM
  IC50: < 0.00316 µM
[37]
  viability, T/C: 80.6%
[38]
  viability, T/C: 8.11%
[1]
  viability, T/C: 6.8%
[2]
  viability, T/C: 5.31%
[3]
  viability, T/C: 4.65%
[4]
  viability, T/C: 4.03%
[39]
  viability, T/C: 89.8%
[40]
  viability, T/C: 8.11%
[7]
  viability, T/C: 6.65%
[8]
  viability, T/C: 5.48%
[9]
  viability, T/C: 6.82%
[10]
  viability, T/C: 4.61%
[41]
  viability, T/C: 84.1%
[42]
  viability, T/C: 9.52%
[13]
  viability, T/C: 6.22%
[14]
  viability, T/C: 5.29%
[15]
  viability, T/C: 5.08%
[16]
  viability, T/C: 4.86%
[43]
  viability, T/C: 53.9%
[44]
  viability, T/C: 8.32%
[19]
  viability, T/C: 6.96%
[20]
  viability, T/C: 6.49%
[21]
  viability, T/C: 5.31%
[22]
  viability, T/C: 4.98%
[45]
  viability, T/C: 70.3%
[46]
  viability, T/C: 16.3%
[25]
  viability, T/C: 7.33%
[26]
  viability, T/C: 5.44%
[27]
  viability, T/C: 6.24%
[28]
  viability, T/C: 4.93%
[47]
  viability, T/C: 48.1%
[48]
  viability, T/C: 11.5%
[31]
  viability, T/C: 7.44%
[32]
  viability, T/C: 5.3%
[33]
  viability, T/C: 6.55%
[34]
  viability, T/C: 4.1%

## Cn1ncnc1[C@H]1c2n[nH]c(=O)c3cc(F)cc(c23)N[C@@H]1c1ccc(F)cc1 + Cc1cccc(N(C)C(=O)C2C(O)CCN2c2nc(C)cc(C(F)(F)F)c2C#N)c1
Second compound 0.0316 µM
  IC50: > 0.1 µM
Second compound 0.1 µM
  IC50: > 0.1 µM
Second compound 0.316 µM
  IC50: > 0.1 µM
Second compound 1 µM
  IC50: > 0.1 µM
Second compound 3.16 µM
  IC50: > 0.1 µM
Second compound 10 µM
  IC50: > 0.1 µM
Second compound 0.0316 µM, first compound 0.000316 µM
  viability, T/C: 110%
Second compound 0.0316 µM, first compound 0.001 µM
  viability, T/C: 102%
[37]
  viability, T/C: 100%
[38]
  viability, T/C: 107%
[1]
  viability, T/C: 104%
[2]
  viability, T/C: 87.3%
Second compound 0.1 µM, first compound 0.000316 µM
  viability, T/C: 103%
Second compound 0.1 µM, first compound 0.001 µM
  viability, T/C: 99.7%
[39]
  viability, T/C: 102%
[40]
  viability, T/C: 107%
[7]
  viability, T/C: 101%
[8]
  viability, T/C: 95.1%
Second compound 0.316 µM, first compound 0.000316 µM
  viability, T/C: 103%
Second compound 0.316 µM, first compound 0.001 µM
  viability, T/C: 97.8%
[41]
  viability, T/C: 102%
[42]
  viability, T/C: 102%
[13]
  viability, T/C: 102%
[14]
  viability, T/C: 96.2%
Second compound 1 µM, first compound 0.000316 µM
  viability, T/C: 109%
Second compound 1 µM, first compound 0.001 µM
  viability, T/C: 96.4%
[43]
  viability, T/C: 96.9%
[44]
  viability, T/C: 103%
[19]
  viability, T/C: 96%
[20]
  viability, T/C: 94.5%
Second compound 3.16 µM, first compound 0.000316 µM
  viability, T/C: 100%
Second compound 3.16 µM, first compound 0.001 µM
  viability, T/C: 98.7%
[45]
  viability, T/C: 101%
[46]
  viability, T/C: 99%
[25]
  viability, T/C: 102%
[26]
  viability, T/C: 91.3%
Second compound 10 µM, first compound 0.000316 µM
  viability, T/C: 103%
Second compound 10 µM, first compound 0.001 µM
  viability, T/C: 92.1%
[47]
  viability, T/C: 101%
[48]
  viability, T/C: 97.9%
[31]
  viability, T/C: 91.3%
[32]
  viability, T/C: 91.1%
